Where “and” joins values, the source holds several entries; their conditions need not be identical. Identical values can stand only once. Entries after “also recorded” stand apart in the source; their conditions may differ. Like-named read-outs stand apart in the source and are kept apart here.
How the values were obtained:
[1] = molecular target: T1, rat CPT-1 (Rattus norvegicus, UniProt Q63704); experiment: Carnitine palmitoyltransferase 1 (CPT-1) assay, yeast mitochondria; type: biochemical; design: % CPT-1 activity: concentration or dose not given beside the values; conditions: for % CPT-1 activity: % of DMSO control, mitochondria of P. pastoris expressing rat CPT-1
T1 construct: made in house; host or cells: Pichia pastoris GS115 (isolated intact mitochondria)
T1 sequence (Q63704 1-772): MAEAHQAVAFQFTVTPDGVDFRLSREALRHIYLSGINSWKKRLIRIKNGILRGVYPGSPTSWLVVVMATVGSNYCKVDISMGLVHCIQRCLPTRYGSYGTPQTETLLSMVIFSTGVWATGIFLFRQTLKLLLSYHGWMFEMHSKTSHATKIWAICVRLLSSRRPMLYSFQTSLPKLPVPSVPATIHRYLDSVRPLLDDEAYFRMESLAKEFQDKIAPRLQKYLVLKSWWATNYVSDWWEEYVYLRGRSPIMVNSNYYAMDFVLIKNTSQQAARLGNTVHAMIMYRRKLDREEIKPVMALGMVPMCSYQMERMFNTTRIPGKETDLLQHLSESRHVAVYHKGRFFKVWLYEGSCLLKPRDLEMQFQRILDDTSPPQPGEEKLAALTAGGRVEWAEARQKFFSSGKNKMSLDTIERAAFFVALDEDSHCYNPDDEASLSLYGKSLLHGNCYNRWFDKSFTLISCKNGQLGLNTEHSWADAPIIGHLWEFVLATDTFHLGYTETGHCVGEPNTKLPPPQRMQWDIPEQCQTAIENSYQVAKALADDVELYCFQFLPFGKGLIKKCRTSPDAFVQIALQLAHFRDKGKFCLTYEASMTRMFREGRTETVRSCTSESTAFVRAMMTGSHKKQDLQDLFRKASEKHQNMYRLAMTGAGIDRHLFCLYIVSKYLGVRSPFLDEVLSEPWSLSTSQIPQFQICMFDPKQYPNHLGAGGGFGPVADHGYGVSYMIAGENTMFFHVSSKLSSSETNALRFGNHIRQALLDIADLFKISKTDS
Source text: The expression plasmid pRCPT-Iβ/pHW010 (provided by Gebre Woldegiorgis, Beaverton, Oreg. Published in Woldegiorgis G. et al. Biochem. Biophys. Res. Commun. 2004, 325, 660-4.) was linearized in the GAP gene promoter by digestion with AvrII and integrated into the GAPp locus of P. pastoris GS115 by electroporation. Histidine prototrophic transformants were selected on YND plates and grown on YND medium. Mitochondria were isolated by disrupting the yeast cells with glass beads as previously described.
CPT activity was assayed by the forward exchange method using L-[^3H] carnitine as previously described (Nicot, C. et al., Biochem. Biophys. Res. Comm. 2004, 325, 2745-7). In a total volume of 0.5 mL, the standard enzyme assay mixture contained 0.2 mM L-[^3H]carnitine (˜5000 dpm/nmol), 80 μM palmitoyl-CoA, 20 mM HEPES (pH 7.0), 1% fatty acid-free albumin, and 40-75 mM KCl, with or without malonyl-CoA as indicated. Reactions were initiated by addition of isolated intact yeast mitochondria. The reaction was linear up to 4 min, and all incubations were done at 30° C. for 3 min. Reactions were stopped by addition of 6% perchloric acid and were then centrifuged at 2000 rpm for 7 min. The resulting pellet was suspended in water, and the product [^3H]palmitoylcarnitine was extracted with butanol at low pH. After centrifugation at 2000 rpm for 2 min, an aliquot of the butanol phase was transferred to a vial for radioactive counting.

[2] = molecular target: T2, FASN (Homo sapiens, UniProt P49327); experiment: Fatty acid synthase activity assay in SK-Br3 cells (NADPH oxidation, particle-free supernatants); type: cell-based; design: FASN activity, % of control cells / FASN activity reduced to / reduction of FASN activity: concentration or dose not given beside the values; conditions: for inhibition of FASN activity (in words): SK-Br3 cells treated 6, 12 and 24 hours; for FASN activity, % of control cells: SK-Br3 cells, 24 h exposure
T2 construct: endogenous in cells; host or cells: SK-Br3 breast cancer cells
T2 sequence (P49327 whole entry): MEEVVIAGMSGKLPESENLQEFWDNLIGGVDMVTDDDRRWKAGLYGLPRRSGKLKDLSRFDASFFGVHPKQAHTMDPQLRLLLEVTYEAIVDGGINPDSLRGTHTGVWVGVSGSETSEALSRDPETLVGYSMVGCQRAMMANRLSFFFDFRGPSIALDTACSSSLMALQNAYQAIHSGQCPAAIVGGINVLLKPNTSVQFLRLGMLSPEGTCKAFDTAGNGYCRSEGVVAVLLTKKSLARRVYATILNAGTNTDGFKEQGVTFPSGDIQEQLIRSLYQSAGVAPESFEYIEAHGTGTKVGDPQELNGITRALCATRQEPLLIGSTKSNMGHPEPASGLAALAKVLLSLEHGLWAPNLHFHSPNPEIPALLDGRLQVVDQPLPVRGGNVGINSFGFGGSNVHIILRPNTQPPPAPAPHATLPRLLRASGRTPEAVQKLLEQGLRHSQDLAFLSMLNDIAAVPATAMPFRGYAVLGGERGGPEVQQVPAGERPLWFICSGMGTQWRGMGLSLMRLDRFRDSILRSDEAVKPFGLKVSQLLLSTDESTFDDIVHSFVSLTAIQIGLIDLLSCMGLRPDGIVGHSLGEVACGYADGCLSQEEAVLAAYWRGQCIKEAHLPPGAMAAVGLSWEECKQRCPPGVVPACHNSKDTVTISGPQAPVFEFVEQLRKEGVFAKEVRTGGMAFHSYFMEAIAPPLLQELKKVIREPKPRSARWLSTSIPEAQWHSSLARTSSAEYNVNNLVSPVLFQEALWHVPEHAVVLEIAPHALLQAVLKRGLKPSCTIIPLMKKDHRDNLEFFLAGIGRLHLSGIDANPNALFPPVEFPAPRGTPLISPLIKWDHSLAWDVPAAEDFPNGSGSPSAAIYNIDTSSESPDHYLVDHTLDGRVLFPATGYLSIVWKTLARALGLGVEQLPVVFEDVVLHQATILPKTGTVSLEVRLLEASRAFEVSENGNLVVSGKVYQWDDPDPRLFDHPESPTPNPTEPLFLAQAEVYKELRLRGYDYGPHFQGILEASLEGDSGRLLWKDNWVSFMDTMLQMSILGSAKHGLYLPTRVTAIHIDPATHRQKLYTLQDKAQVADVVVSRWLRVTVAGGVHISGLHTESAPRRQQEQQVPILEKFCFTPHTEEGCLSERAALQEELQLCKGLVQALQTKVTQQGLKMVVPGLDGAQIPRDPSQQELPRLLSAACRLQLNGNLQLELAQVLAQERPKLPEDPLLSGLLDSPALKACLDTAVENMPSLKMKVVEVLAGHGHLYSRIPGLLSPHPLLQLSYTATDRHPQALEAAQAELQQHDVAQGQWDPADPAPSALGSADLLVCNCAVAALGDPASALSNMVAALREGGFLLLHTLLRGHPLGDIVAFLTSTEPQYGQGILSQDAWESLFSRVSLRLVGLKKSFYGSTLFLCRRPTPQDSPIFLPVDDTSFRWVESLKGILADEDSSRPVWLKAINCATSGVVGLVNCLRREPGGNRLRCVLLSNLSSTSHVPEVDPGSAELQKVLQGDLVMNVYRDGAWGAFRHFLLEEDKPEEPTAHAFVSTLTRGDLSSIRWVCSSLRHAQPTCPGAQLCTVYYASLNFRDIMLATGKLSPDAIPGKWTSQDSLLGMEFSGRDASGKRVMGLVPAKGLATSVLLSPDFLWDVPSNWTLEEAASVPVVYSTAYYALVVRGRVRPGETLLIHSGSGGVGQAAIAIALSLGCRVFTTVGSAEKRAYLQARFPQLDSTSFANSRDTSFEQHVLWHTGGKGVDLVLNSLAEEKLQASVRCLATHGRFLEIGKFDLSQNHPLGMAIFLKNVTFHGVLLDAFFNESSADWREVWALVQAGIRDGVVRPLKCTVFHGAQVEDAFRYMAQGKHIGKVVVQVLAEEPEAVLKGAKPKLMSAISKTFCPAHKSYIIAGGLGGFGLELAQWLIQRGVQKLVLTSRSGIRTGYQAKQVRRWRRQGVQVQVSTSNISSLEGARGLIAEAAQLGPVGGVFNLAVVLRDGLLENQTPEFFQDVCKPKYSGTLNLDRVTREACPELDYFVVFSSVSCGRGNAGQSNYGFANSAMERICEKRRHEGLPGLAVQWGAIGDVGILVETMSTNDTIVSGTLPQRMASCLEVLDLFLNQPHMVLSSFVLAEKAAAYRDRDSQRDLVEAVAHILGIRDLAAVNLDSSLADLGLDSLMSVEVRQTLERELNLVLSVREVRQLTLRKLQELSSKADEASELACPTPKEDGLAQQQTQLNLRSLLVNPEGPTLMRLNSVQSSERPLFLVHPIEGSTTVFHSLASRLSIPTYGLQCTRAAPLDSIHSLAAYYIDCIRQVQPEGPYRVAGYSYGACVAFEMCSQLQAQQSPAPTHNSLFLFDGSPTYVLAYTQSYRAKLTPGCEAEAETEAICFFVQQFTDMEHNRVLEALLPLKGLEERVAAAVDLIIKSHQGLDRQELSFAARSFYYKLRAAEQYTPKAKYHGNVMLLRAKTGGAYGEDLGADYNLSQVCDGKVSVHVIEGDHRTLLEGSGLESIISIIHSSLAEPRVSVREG
Procedure: FASN activity of compounds a, b, e, f, h, i, k, m and q was assayed in particle-free supernatants by recording spectrophotometrically at 37° C. (Lambda Bio 20, Perkin Elmer, EUA; using UV Kinlab 2.80.02 software) the decrease of A340nm due to the oxidation of NADPH, as we previously described. After 6, 12, 24 h of exposure to the tested compound, the cells were harvested by treatment with trypsin-EDTA solution, pelleted by centrifugation, washed twice and resuspended in cold PBS. The cells were sonicated during 30 min at 4° C. (PSelecta ultrasons) and centrifuged for 15 min at 4° C. to keep supernatants particle-free. A sample was taken to measure the protein content by a BioRad assay (Bio-Rad Laboratories). One-hundred and twenty micrograms of protein were pre-incubated during 15 min at 37° C. in 0.2 M of potassium phosphate buffer, pH 7.0, for temperature equilibration. The sample was then added to the reaction mixture: 200 mM potassium phosphate buffer, pH 7.0, 1 mM EDTA (Sigma), 1 mM dithiothreitol (Sigma), 30 μM acetyl-CoA (Sigma), 0.24 mM NADPH (Sigma), in 0.3 mL reaction volume were monitored at 340 nm for 3 min to measure the background NADPH oxidation. After the addition of 50 μM of malonyl-CoA (Sigma), the reaction was assayed for additional 10 min to determine FASN-dependent oxidation of NADPH. Rates were corrected for the background rate of NADPH oxidation in the presence of acetyl-CoA. FASN activity was expressed in nmol NADPH oxidized min^−1 mg protein^−1.

[3] = tested on: SK-Br3 breast cancer cells; experiment: MTT cytotoxicity assay, SK-Br3 breast cancer cells; type: cell-based, human; conditions: MTT, 48 h, read-out: IC50, growth inhibition, SK-Br3
Procedure: (§1) MCF-7 and MDA-MB-231 breast cancer cells were obtained from the American Type Culture Collection (ATCC) and were routinely grown in Dulbecco's modified Eagle's medium (DMEM, Gibco) containing 10% fetal bovine serum (FBS, Bio-Whittaker), 1% L-glutamine, 1% sodium pyruvate, 50 U/mL penicillin and 50 μg/mL streptomycin. SK-Br3 breast cancer cells were obtained from Eucellbank (Universidad de Barcelona, Spain) and were passaged in McCoy's 5 A medium containing 10% FBS, 1% L-glutamine, 1% sodium pyruvate, 50 U/mL penicillin and 50 μg/mL streptomycin. Non-malignant fibroblasts N-1 were obtained from Eucellbank (Universidad de Barcelona, Spain) and were passaged in DMEM medium containing 10% FBS, 1% L-glutamine, 1% sodium pyruvate, 50 U/mL penicillin and 50 μg/mL streptomycin. The cells remained free of Mycoplasma and were propagated in adherent culture according to established protocols. Cells were maintained at 37° C. in a humidified atmosphere of 95% air and 5% CO2.
(§2) Drug sensitivity was determined using a standard colorimetric MTT (3-4,5-dimethylthiazol-2-yl-2,5-diphenyltetrazolium bromide) assay. Briefly, cells were plated out at a density of 7×10^3 cells/100 μL/well in 96-well microtitre plates and allowed an overnight period for attachment. Then the medium was removed and fresh medium along with various concentrations of the tested compound were added to the cultures for a period of 48 h. Following the treatment, the cells were fed with drug-free medium (100 μL/well) and 10 μL of MTT solution (5 mg/mL; Sigma, St. Louis, Mo.), and the incubation was prolonged for 3 h at 37° C. After carefully removing the supernatants, the MTT-formazan crystals formed by metabolically viable cells were dissolved in dimethyl sulphoxide (100 μL/well) and the absorbance was measured at 570 nm in a multi-well plate reader (Model Anthos Labtec 2010 1.7 reader).

[4] = Weight loss in vivo (data not shown)
[5] = tested on: MDA-MB-231 breast cancer cells; experiment: MTT cytotoxicity assay, MDA-MB-231 breast cancer cells; type: cell-based, human; conditions: MDA-MB-231 cells, 48 h, read-out: IC50, growth inhibition, MDA-MB-231
Procedure: as §1, §2

[6] = tested on: MCF-7 breast cancer cells; experiment: MTT cytotoxicity assay, MCF-7 breast cancer cells; type: cell-based, human; conditions: 48 h, read-out: IC50, growth inhibition, MCF-7
Procedure: as §1, §2

[7] = tested on: Non-malignant fibroblasts N-1; experiment: MTT cytotoxicity assay, non-malignant fibroblasts N-1; type: cell-based; conditions: for IC50: non-malignant fibroblasts, MTT, 48 h, read-out: IC50, growth inhibition, Fibroblasts; for effects in cell death / morphology changes in non-malignant cells: up to doses three-fold their cytotoxic IC50 value in tumoral cells
Procedure: as §1, §2

[8] = tested on: cancer cells overexpressing FASN; conditions: cited from earlier work
[9] = rats, oral dose of 56 mg of EGCG; cited from earlier work
[10] = within 24 h, mice models; cited from earlier work
[11] = Homo sapiens, MCF7, MCF-7 cells

| SMILES | stimulation of CPT-1 activity (in words) [1] | melting point [°C] | % CPT-1 activity [1] [%] | inhibition of FASN activity (in words) [2] | IC50 ([3]; Homo sapiens, SK-BR-3, 48 h) [µM] | IC50 ([5]; Homo sapiens) [µM] | IC50 [6, 11] [µM] | further results |
| --- | --- | --- | --- | --- | --- | --- | --- | --- |
| O=C(Oc1ccc(-c2ccc(OC(=O)c3cc(O)c(O)c(O)c3)cc2)cc1)c1cc(O)c(O)c(O)c1 [q, 4,4′-bis[(3,4,5-trihydroxybenzoyl)oxy]-1,1′-biphenyl] | did not stimulate CPT-1 activity |  | 84.38 ± 4 | inhibit FASN activity; also recorded: decreased in a time-dependent manner | 4 ± 1 | 5.2 ± 3.5 | 2.5 ± 0.1 | FASN activity, % of control cells [2]: 20%; reduction of FASN activity ([2]; after 24 h of cell exposure): 50%; IC50 [3]: 4.4 ± 1.4 µM; weight loss in vivo [4]: without inducing weight loss in vivo; IC50 ([7]; Fibroblast): 13 ± 4 µM; effect on non-malignant cells / normal fibroblasts ([7]; at concentrations similar to IC50): not affected; effects in cell death / morphology changes in non-malignant cells [7]: No significant effects |
| O=C(Oc1ccc(OC(=O)c2cc(O)c(O)c(O)c2)c(-c2ccccc2)c1)c1cc(O)c(O)c(O)c1 [o, 2,5-bis[(3,4,5-trihydroxybenzoyl)oxy]-1,1′-biphenyl] | did not | 114 to 116 | 86.80 ± 14 |  | 17.5 ± 2.6 | 40 ± 2.8 | 10 ± 2.8 |  |
| O=C(Oc1cc2ccccc2cc1OC(=O)c1cc(O)c(O)c(O)c1)c1cc(O)c(O)c(O)c1 [e, 2,3-bis[(3,4,5-trihydroxybenzoyl)oxy]naphthalene] | did not stimulate CPT-1 activity | 182 to 183 | 87.91 ± 7 | inhibit FASN activity; also recorded: decreased in a time-dependent manner | 76.5 ± 9.2 | 136 ± 26.9 | 89 ± 28.7 | FASN activity, % of control cells [2]: 69%; weight loss in vivo [4]: without inducing weight loss in vivo |
| O=C(O[C@@H]1Cc2c(O)cc(O)cc2O[C@@H]1c1cc(O)c(O)c(O)c1)c1cc(O)c(O)c(O)c1 [EGCG, (−)-epigallocatechin-3-gallate, reference compound] |  |  | 81 ± 4 | inhibit FASN activity; also recorded: decreased in a time-dependent manner |  |  |  | inhibitory ability lower than that of C75 and cerulenin [8]: 4 fold; IC50 [3]: 150 µM and 149 µM; IC50 [5]: 197 ± 15.3 µM; IC50 ([6]; MCF-7 cells): 205 ± 7.1 µM; EGCG absorbed [9]: 0.012%; IC50 [7]: 125 µM; effects in cell death / morphology changes in non-malignant cells [7]: massive cell death |
| O=C(Oc1ccc(OC(=O)c2cc(O)cc(O)c2)c2ccccc12)c1cc(O)cc(O)c1 [j, 1,4-bis[(3,5-dihydroxybenzoyl)oxy]naphthalene] |  | 201 to 203 |  |  | 115 ± 7.1 | 24 ± 0.9 |  |  |

Now from value to compound, other results behind:

| stimulation of CPT-1 activity (in words) [1] | melting point [°C] | SMILES | % CPT-1 activity [1] [%] | inhibition of FASN activity (in words) [2] | IC50 ([3]; Homo sapiens, SK-BR-3, 48 h) [µM] | IC50 ([5]; Homo sapiens) [µM] | IC50 [6, 11] [µM] | further results |
| --- | --- | --- | --- | --- | --- | --- | --- | --- |
|  | 194 to 195 | O=C(Oc1cccc(OC(=O)c2cc(O)c(O)c(O)c2)c1)c1cc(O)c(O)c(O)c1 [b, 1,3-bis[(3,4,5-trihydroxybenzoyl)oxy]benzene] |  |  | 42 ± 7.1 | 173 ± 40.2 | 162 ± 17.8 |  |
|  | 210 | O=C(Oc1ccccc1OC(=O)c1cc(O)c(O)c(O)c1)c1cc(O)c(O)c(O)c1 [a, 1,2-bis[(3,4,5-trihydroxybenzoyl)oxy]benzene] |  |  | 126 ± 5.2 | 163 ± 5.2 | 165 ± 8.2 |  |
| stimulates CPT-1 activity |  | C=C1C(=O)O[C@H](CCCCCCCC)[C@H]1C(=O)O [Compound C75, (2R,3S)-4-methylene-2-octyl-5-oxotetrahydrofuran-3-carboxylic acid, reference compound] |  |  |  |  |  | loss of body mass [10]: up to 12% |

Reference: patent publication US20100190856A1, “Novel Polyhydroxylated Compounds as Fatty Acid Synthase (FASN) Inhibitors” (UNIVERSIDAD COMPLUTENSE DE MADRID, priority 2007, published 2010)
